This note sets out measurements from PubChem BioAssay (NCI).

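Where inhibition never reached the appropriate level, the endpoint shown equals the highest concentration tested. Otherwise, values were interpolated linearly from a five-concentration, 48-hour dose response in 96-well plates. GI50 = concentration required for 50% inhibition of growth. TGI denotes the concentration required for complete inhibition of growth.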

The test concerns MDA-MB-468 breast. The test can be described thus: NCI tumour cell line growth inhibition, 48 h.

With `COc1ccc(/C=C2\c3cc(OC)c(OC)c(OC)c3CC[C@@H]2O)cc1F`, the GI50 is 1160 nM and the TGI is above 100000 nM.

Take `COc1cccc(Nc2nccc(-c3cnn4ncccc34)n2)c1`: the GI50 is 48.4 nM and the TGI came out at 106 nM.

`N#CC1C(=O)NC(c2ccccc2[N+](=O)[O-])c2sc3c(F)cccc3c21` (stereo not drawn): the GI50 is 108 nM and the TGI was found to be 283 nM.

In the case of `FC(F)(F)c1cc(Nc2ccc3cc(OCCCN4CCOCC4)ccc3n2)ccc1Cl`, the GI50 was 1910 nM and the TGI came out at 6750 nM.

In the case of `COc1cnc2c(c1)C(=O)c1c-2n(CCCN2CCNCC2)c(=O)c2cc([N+](=O)[O-])ccc12`, the GI50 was 257 nM and the TGI was 1350 nM.

`COc1ccc(N(C)c2nc(Cl)nc3cnn(C)c23)cc1`: the GI50 is below 10 nM and the TGI was above 100000 nM.

In the case of `CCn1ccc(NS(=O)(=O)c2ccc(N)cc2)nc1=O`, the GI50 is above 100000 nM and the TGI is above 100000 nM.

`CN1CCN(Cc2cc(NC(=O)c3cccc(C#Cc4cccc5[nH]nc(N)c45)c3)cc(C(F)(F)F)c2)CC1`: the GI50 is 1750 nM and the TGI turned out to be 3350 nM.

As to `CN(C)CCNC(=O)NC[C@H]1CC[C@@H]2[C@H](O1)c1cc(C(F)(F)F)ccc1N[C@H]2c1ccccc1`, the GI50 is 34.9 nM and the TGI turned out to be 312 nM.

Consider `C[C@@H](Oc1cc(-n2cnc3ccc(OC[C@@H](O)CO)cc32)sc1C(N)=O)c1ccccc1Cl`, for which the GI50 is 15.9 nM and the TGI came to 6070 nM.

Regarding `COC1=CC(=O)c2nc(Cl)ccc2C1=O`, the GI50 was 1360 nM and the TGI stood at 2670 nM.

For `Cc1ccc(S(=O)(=O)N2CCc3ccc(O)c4c3C2Cc2ccc3c(c2-4)OCO3)cc1` (stereo not drawn), the GI50 is 743 nM and the TGI was determined as 7490 nM.

For the molecule `O=[N+]([O-])c1ccc(Sc2ccncn2)c([N+](=O)[O-])c1`, the GI50 was 982 nM and the TGI is 3780 nM.

For `CN(C)c1ccc(N=C2C=CC(=O)c3ccccc32)cc1`, the GI50 was 2150 nM and the TGI is 6050 nM.

For `Cc1cc(Cl)cc(Cc2cc(Cl)cc(C)c2O)c1O`, the GI50 is 2220 nM and the TGI amounted to 6920 nM.

For `Cc1nccc2c3ccc(OCc4cn(-c5ccc(Cl)cc5)nn4)cc3n(CC(C)C)c12`, the GI50 was 968 nM and the TGI amounted to 12000 nM.

On to `Nc1c(F)cc(-c2nc3cc(F)ccc3[se]2)cc1Br`, for which the GI50 is 26 nM and the TGI stood at 93.3 nM.

In the case of `Cc1ccc(S(=O)(=O)Nc2ccc(-c3cc(-c4cccc(F)c4)c(C#N)c(N)n3)cc2)cc1`, the GI50 was 1720 nM and the TGI stood at 3760 nM.

Regarding `COCc1c(-c2ccc(NC(=O)Nc3cc(C(F)(F)F)ccc3F)c(F)c2)c2c(N)ncnn2c1CN1CCOCC1`, the GI50 is 1620 nM and the TGI turned out to be 5680 nM.

As to `C=CCc1c(O)c(C(=O)/C=C/c2ccccc2)c(OC)c2ccoc12`, the GI50 was 3070 nM and the TGI turned out to be 11400 nM.

`COc1ccc(OC)c(/C=C/c2nc(SCc3ccccc3)n(-c3ccc(Cl)cc3)n2)c1`: the GI50 was 5120 nM and the TGI turned out to be 84500 nM.

`COCCn1cc(-c2csc(-c3c[nH]c4ccc(Br)cc34)n2)c2cccnc21`: the GI50 was 2340 nM and the TGI was 7630 nM.

Turning to `Nc1ncnc2c1ccn2[C@@H]1O[C@H]([C@H](O)c2ccc(Cl)c(F)c2)[C@@H](O)[C@H]1O`, the GI50 is 40700 nM and the TGI is above 100000 nM.

With `C#Cc1cccc(NC(=O)c2ccc(NC(=O)CCl)cc2)c1`, the GI50 is 18800 nM and the TGI amounted to 76900 nM.

As for `COC(=O)[C@]12CC[C@@H](C)[C@H](C)[C@@H]1C1=CC[C@@H]3[C@@]4(C)C(C=O)=C[C@@](C)(COC(=O)/C=C/c5ccccc5)[C@@H]4[C@H](O)C[C@@]3(C)[C@]1(C)CC2`, the GI50 was 2590 nM and the TGI amounted to 7490 nM.

On to `CC1(C)N=C(N)N=C(N)N1c1cccc(Br)c1`, for which the GI50 is 400 nM and the TGI was above 85100 nM.

With `CCCN1CCC(c2ccc(Nc3nc(Nc4cc(F)ccc4C(N)=O)c4cc[nH]c4n3)c(OC)c2)CC1`, the GI50 was 3470 nM and the TGI turned out to be 7390 nM.

For `CNC(=O)c1cc(Oc2ccc3c(c2)sc2nc(-c4ccc(N(C)C)cc4)cn23)ccn1`, the GI50 was 300 nM and the TGI was above 50000 nM.

As to `CCN(Cc1ccc(F)cc1)c1ccc(CO)c(OC)c1`, the GI50 is 435 nM and the TGI amounted to 2110 nM.

Take `CC1=C([Se]CC(OC(=O)[C@@H](CO)NC(=O)OC(C)(C)C)C(=O)NCCCCCC(=O)OCc2ccccc2)C(=O)c2ccccc2C1=O` (stereo partly drawn): the GI50 was 1490 nM and the TGI stood at 3160 nM.

With `C=C1C(=O)O[C@H]2[C@H]1CC/C(COC(=O)NCCCCCCCCNC(=O)OC/C1=C/CC[C@@]3(C)O[C@H]3[C@H]3OC(=O)C(=C)[C@@H]3CC1)=C\CC[C@@]1(C)O[C@@H]21`, the GI50 was 191 nM and the TGI worked out at 462 nM.

As to `CN(C)CCOC(=O)Nc1nc2ccc(Sc3ccccc3)cc2[nH]1`, the GI50 is 2020 nM and the TGI is 7730 nM.

In the case of `CCC(=O)Nc1cc(Nc2cc(NC3CC3)n3ncc(C#N)c3n2)ccc1C`, the GI50 was 1160 nM and the TGI is 4060 nM.

Turning to `CN1CCN(Cc2ccc(NC(=O)c3cncc(C#Cc4cnc(N)c5cnccc45)c3)cc2C(F)(F)F)CC1`, the GI50 is 285 nM and the TGI was 4520 nM.
